Data on 2 compounds can be found in PMC10803289, “Transport and inhibition mechanism of the human SGLT2–MAP17 glucose transporter” (Nature Structural & Molecular Biology, 2023).

Each structure is given as a SMILES string. Several values for one entry are separate records, joined by “and”; a condition that tells them apart may be missing. Identical values can stand only once.

One assay has as its system Mock cells. Put plainly: α-MG uptake in mock (empty vector) HEK293 cells. Type of assay: cell-based, human. The note with it: Control (no inhibitor). On the procedure:
HEK293 cells (ECACC 85120602) were maintained in Dulbecco’s modified Eagle medium (Gibco) supplemented with 10% fetal bovine serum (Thermo Scientific), 2 mM L-glutamine, 100 U ml^−1 benzylpenicillin and 100 µg ml^−1 streptomycin at 37 °C in a humidified atmosphere (5% CO2 in air). HEK293 cells were seeded at 1.0 × 10^5 cells per well in poly-L-lysine coated 24-well plates. The cells in each well were transiently transfected with 0.25 µg hMAP17 plasmid and 0.50 µg hSGLT2 plasmid using Lipofectamine 2000 (Life Technologies) and cultured for 48 h. […]
Cell lysates were deproteinized by adding acetonitrile containing candesartan as the internal standard. The α-MG concentration was quantified via liquid chromatography–tandem mass spectrometry (LC–MS/MS) using the internal standard method.
Cellular protein content was determined using a bicinchoninic acid protein assay kit (Thermo Fisher Scientific). The uptake of α-MG was expressed as the ratio of concentration in the cells (in pmol per mg protein) to concentration in the medium (in pmol μl^−1); this is known as the cell-to-medium ratio (in μl per mg protein).
In the inhibition study, the cell-to-medium ratio of cells transfected with the empty vector was used as the background. […] IC50 was calculated via nonlinear regression using GraphPad Prism 8.4.3. […]

For a further assay, the system named is SGLT1 and SGLT2. The note with it: in words; cited from earlier work.
Assay [1] concerns the target T1, wild-type hSGLT2 (membrane fraction of hSGLT2 and MAP17 expressing cells) (Homo sapiens, UniProt P31639).
T1 construct: expressed in transfected cells; host or cells: Expi293 cells, crude membrane fraction
T1 sequence (P31639 1-672): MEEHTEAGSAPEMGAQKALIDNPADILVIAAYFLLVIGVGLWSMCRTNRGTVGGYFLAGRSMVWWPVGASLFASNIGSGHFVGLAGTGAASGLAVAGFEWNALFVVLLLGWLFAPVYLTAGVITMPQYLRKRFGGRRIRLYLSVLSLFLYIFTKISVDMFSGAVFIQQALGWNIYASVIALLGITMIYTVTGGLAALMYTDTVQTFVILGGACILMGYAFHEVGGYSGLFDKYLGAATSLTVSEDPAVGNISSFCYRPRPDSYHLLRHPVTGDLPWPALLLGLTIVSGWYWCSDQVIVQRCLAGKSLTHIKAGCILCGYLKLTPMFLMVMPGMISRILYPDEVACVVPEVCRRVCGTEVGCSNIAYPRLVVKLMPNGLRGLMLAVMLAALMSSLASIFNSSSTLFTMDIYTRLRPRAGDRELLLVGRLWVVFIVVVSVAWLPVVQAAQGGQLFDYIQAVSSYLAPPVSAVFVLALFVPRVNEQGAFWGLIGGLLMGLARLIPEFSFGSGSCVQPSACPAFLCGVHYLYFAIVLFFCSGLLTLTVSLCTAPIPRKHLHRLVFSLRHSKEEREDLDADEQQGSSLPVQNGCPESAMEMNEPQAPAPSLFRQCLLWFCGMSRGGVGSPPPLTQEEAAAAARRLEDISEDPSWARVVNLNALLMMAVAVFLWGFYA
T1 sequence (Q13113 1-114 partner): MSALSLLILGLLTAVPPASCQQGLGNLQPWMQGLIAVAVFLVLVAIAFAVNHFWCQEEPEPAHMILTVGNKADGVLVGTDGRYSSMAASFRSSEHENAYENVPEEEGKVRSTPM
Put plainly: SGLT2 inhibitor-binding assay via affinity selection–mass spectrometry, crude membrane, WT. The method, then:
To examine the inhibition of binding to the crude membrane, mammalian Expi293 cells were co-transfected with the hMAP17 and hSGLT2 plasmids, as described. The cells were collected and disrupted by sonication in a hypotonic buffer (50 mM HEPES–NaOH (pH 7.5), 10 mM KCl and protease inhibitor cocktail) or Na^+-free hypotonic buffer (50 mM Tris–HCl (pH 7.5), 10 mM KCl and protease inhibitor cocktail). The cell debris were removed by centrifugation (2,000g, 5 min, 4 °C). The membrane fraction was collected by ultracentrifugation (112,000g, 30 min, 4 °C) and stored at −80 °C before use. The crude membrane (250 μg per sample) was incubated with SGLT2 inhibitor in an assay buffer (100 mM NaCl and 10 mM HEPES/Tris, pH 7.4) or Na^+-free assay buffer (100 mM choline chloride and 10 mM HEPES/Tris, pH 7.4) at room temperature for 2 h. Reactions were terminated by filtration through a GF/C filter plate (Corning) presoaked in assay buffer containing 0.1% bovine serum albumin. The sample in the filter plate was washed three times with the assay buffer and eluted with acetonitrile: water (80:20, v/v). The extract solution from the filter plate was diluted with water containing candesartan as an internal standard, and the SGLT2 inhibitor concentration was quantified via LC–MS/MS.
Nonspecific binding was measured using the crude membrane of nontransfected Expi293 cells. Specific binding was calculated by subtracting nonspecific binding from the binding of hSGLT2-expressing cells. Specific binding was normalized to hSGLT2 protein expression levels, measured via FSEC. The equilibrium dissociation constant (Kd) and maximum number of binding sites (Bmax) were calculated via nonlinear regression in GraphPad Prism 8.4.3. The specific binding of the hSGLT2 mutants was normalized to the Bmax of WT hSGLT2.
The concentrations of the extract solution from the filter plate and of the cell lysate were quantified using a tandem mass spectrometry QTRAP6500 System (SCIEX) coupled with an ACQUITY UPLC system (Waters) using the internal standard method. Mobile phases A and B used 10 mM of ammonium bicarbonate and acetonitrile, respectively.

`CO[C@H]1O[C@H](CO)[C@@H](O)[C@H](O)[C@H]1O` [α-MG, α-methyl-D-glucopyranoside]: the α-MG uptake with Mock cells is 1.2395 μL/mg-protein and 1.0638 μL/mg-protein and 1.0076 μL/mg-protein and 1.0525 μL/mg-protein.
Take `Cc1ccc([C@@H]2O[C@H](CO)[C@@H](O)[C@H](O)[C@H]2O)cc1Cc1ccc(-c2ccc(F)cc2)s1` [Canagliflozin]: the “subtype specificity of inhibition (SGLT1 vs SGLT2)” value in the assay with SGLT1 and SGLT2 is given as “SGLT2-specific inhibition”. Besides, the “Canagliflozin binding (% of WT)” value in assay [1] (30 nM canagliflozin, WT, replicates) is 95.0024 % of WT and 98.5721 % of WT and 106.426 % of WT. Besides, the “Canagliflozin binding (% of hSGLT2)” value in assay [1] (30 nM canagliflozin, hSGLT2 membrane) is 85.124 % of hSGLT2 and 96.4187 % of hSGLT2 and 118.457 % of hSGLT2. Besides, the Bmax in assay [1] (Na(+), mean ± SEM n=3) stood at 1.91 ± 0.16 pmol/mg-protein; in assay [1] (Na(-), mean ± SEM n=3) it was 1.33 ± 0.12 pmol/mg-protein. Further, the Kd – broadly, the constant that tells how readily two partners part at equilibrium – in assay [1] (Na(+), mean ± SEM n=3) was 94 ± 21.8 nM; in assay [1] (Na(-), mean ± SEM n=3) it was 109 ± 25.4 nM; in assay [1] (in the presence of sodium, rounded value quoted by the referee in peer review file), roughly 100 nM. Also, the Canagliflozin binding in assay [1] (Sodium 0 mM, replicates) is 0.5239 pmol/mg-protein and 0.5745 pmol/mg-protein and 0.6364 pmol/mg-protein; in assay [1] (Sodium 1 mM, replicates), 0.4659 pmol/mg-protein and 0.5424 pmol/mg-protein and 0.6685 pmol/mg-protein; in assay [1] (Sodium 10 mM, replicates), 0.8906 pmol/mg-protein and 0.8030 pmol/mg-protein and 0.9338 pmol/mg-protein; in assay [1] (Sodium 100 mM, replicates), 0.9992 pmol/mg-protein and 1.5850 pmol/mg-protein and 1.3270 pmol/mg-protein. Also, in assay [1] (absence vs presence of Na+), the “Bmax in the absence versus the presence of Na+ (in words)” value is “partially lower”.
